How the values were obtained:
Type in all cases: functional, cell-based
[1] = Cytotoxicity against human HL60 cells by MTT assay; details: HL-60
[2] = Cytotoxicity against human SMMC7721 cells by MTT assay; details: SMMC-7721
A549 = experiment: Cytotoxicity against human A549 cells by MTT assay
MCF7 = experiment: Cytotoxicity against human MCF7 cells by MTT assay
SW480 = experiment: Cytotoxicity against human SW480 cells by MTT assay

SMILES | IC50 [1] [µM] | IC50 [2] [µM] | IC50 (A549) [µM] | IC50 (MCF7) [µM] | IC50 (SW480) [µM]
COc1ccc(C(=O)C[n+]2c(C)n(CC(=O)N3CCC4(C)c5ccccc5N(Cc5ccccc5)C34)c3ccccc32)cc1 (stereo not given) | 4.18 | 8.83 | 12.5 | 6.99 | 8.38
Cc1n(CC(=O)N2CCC3(C)c4ccccc4N(C)C23)cc[n+]1CC(=O)c1ccccc1 (stereo not given) | > 20 | > 20 | > 20 | > 20 | > 20
Cc1cc2ncn(CC(=O)N3CCC4(C)c5ccccc5N(C)C34)c2cc1C (stereo not given) | > 20 | > 20 | > 20 | > 20 | > 20
CN1c2ccccc2C2(C)CCN(C(=O)Cn3c[n+](CC(=O)c4ccccc4)c4ccccc43)C12 (stereo not given) | > 20 | > 20 | > 20 | > 20 | > 20
COc1ccc(C(=O)C[n+]2cn(CC(=O)N3CCC4(C)c5ccccc5N(Cc5ccccc5)C34)c3cc(C)c(C)cc32)cc1 (stereo not given) | 1.64 | 5.07 | 7.4 | 2.35 | 1.5
Cc1ccc(C[n+]2ccn(CC(=O)N3CCC4(C)c5ccccc5N(Cc5ccccc5)C34)c2C)cc1 (stereo not given) | 0.47 | 19.5 | > 20 | 7.26 | 9.71
CN1c2ccccc2C2(C)CCN(C(=O)Cn3cc[n+](CC(=O)c4ccccc4)c3)C12 (stereo not given) | > 20 | > 20 | > 20 | > 20 | > 20
CN1c2ccccc2C2(C)CCN(C(=O)Cn3c[n+](CC(=O)c4ccc5ccccc5c4)c4ccccc43)C12 (stereo not given) | 5.98 | > 20 | > 20 | 11 | 8.56
CC12CCN(C(=O)Cn3c[n+](CC(=O)c4ccccc4)c4ccccc43)C1N(Cc1ccccc1)c1ccccc12 (stereo not given) | 5.72 | 14.5 | > 20 | 8.16 | 8.43
COc1ccc(C(=O)C[n+]2ccn(CC(=O)N3CCC4(C)c5ccccc5N(C)C34)c2)cc1 (stereo not given) | > 20 | > 20 | > 20 | > 20 | > 20
Cc1n(CC(=O)N2CCC3(C)c4ccccc4N(C)C23)cc[n+]1CC(=O)c1ccc(Br)cc1 (stereo not given) | > 20 | > 20 | > 20 | > 20 | > 20
CN1c2ccccc2C2(C)CCN(C(=O)Cn3cc[n+](CC(=O)c4ccc(Br)cc4)c3)C12 (stereo not given) | > 20 | > 20 | > 20 | > 20 | > 20
COc1ccc(C(=O)C[n+]2ccn(CC(=O)N3CCC4(C)c5ccccc5N(Cc5ccccc5)C34)c2C)cc1 (stereo not given) | 1.3 | > 20 | > 20 | 10.6 | > 20
COc1ccc(C(=O)C[n+]2cn(CC(=O)N3CCC4(C)c5ccccc5N(C)C34)c3ccccc32)cc1 (stereo not given) | > 20 | > 20 | > 20 | > 20 | > 20
CN1c2ccccc2C2(C)CCN(C(=O)Cn3c[n+](CC(=O)c4ccc(Br)cc4)c4ccccc43)C12 (stereo not given) | > 20 | > 20 | > 20 | > 20 | > 20
CC12CCN(C(=O)Cn3c[n+](Cc4ccc(Br)cc4)c4ccccc43)C1N(Cc1ccccc1)c1ccccc12 (stereo not given) | 1.42 | 7.53 | 7.59 | 3.87 | 7.43
CN1c2ccccc2C2(C)CCN(C(=O)Cn3cc[n+](CC(=O)c4ccc5ccccc5c4)c3)C12 (stereo not given) | > 20 | > 20 | > 20 | > 20 | > 20
Cc1n(CC(=O)N2CCC3(C)c4ccccc4N(Cc4ccccc4)C23)c2ccccc2[n+]1CC(=O)c1ccccc1 (stereo not given) | 4.64 | 9.28 | 14.7 | 6.35 | 8.31
CC12CCN(C(=O)Cn3c[n+](CC(=O)c4ccc(Br)cc4)c4ccccc43)C1N(Cc1ccccc1)c1ccccc12 (stereo not given) | 2.93 | 8.43 | 8.07 | 8.15 | 9.18
Cc1n(CC(=O)N2CCC3(C)c4ccccc4N(Cc4ccccc4)C23)cc[n+]1CC(=O)c1ccc2ccccc2c1 (stereo not given) | 2.2 | 4.79 | 11.2 | 5.67 | 7.78
Cc1n(CC(=O)N2CCC3(C)c4ccccc4N(C)C23)c2ccccc2[n+]1CC(=O)c1ccccc1 (stereo not given) | > 20 | > 20 | > 20 | > 20 | > 20
CN1c2ccccc2C2(C)CCN(C(=O)Cn3c[n+](Cc4ccccc4Br)c4ccccc43)C12 (stereo not given) | 5.07 | > 20 | > 20 | 14 | > 20
COc1ccc(C(=O)C[n+]2cn(CC(=O)N3CCC4(C)c5ccccc5N(Cc5ccccc5)C34)c3ccccc32)cc1 (stereo not given) | 5.94 | 10 | > 20 | 7.83 | 8.35

SMILES | IC50 [1] [µM] | IC50 [2] [µM] | IC50 (A549) [µM] | IC50 (MCF7) [µM] | IC50 (SW480) [µM]
Cc1n(CC(=O)N2CCC3(C)c4ccccc4N(Cc4ccccc4)C23)cc[n+]1CC(=O)c1ccc(Br)cc1 (stereo not given) | 7.75 | > 20 | > 20 | > 20 | > 20
COc1ccc(C(=O)C[n+]2ccn(CC(=O)N3CCC4(C)c5ccccc5N(C)C34)c2C)cc1 (stereo not given) | > 20 | > 20 | > 20 | > 20 | > 20
CC12CCN(C(=O)Cn3c[n+](CC(=O)c4ccc5ccccc5c4)c4ccccc43)C1N(Cc1ccccc1)c1ccccc12 (stereo not given) | 1.64 | 7.62 | 7.4 | 5.13 | 6.88
Cc1cc2c(cc1C)[n+](CC(=O)c1ccccc1)cn2CC(=O)N1CCC2(C)c3ccccc3N(Cc3ccccc3)C12 (stereo not given) | 1.47 | 5.78 | 6.54 | 3.51 | 7.09
Cc1cc2c(cc1C)[n+](Cc1ccc(Br)cc1)cn2CC(=O)N1CCC2(C)c3ccccc3N(Cc3ccccc3)C12 (stereo not given) | 1.29 | 3.59 | 6.37 | 1.72 | 1.41
Cc1cc2c(cc1C)[n+](Cc1ccc3ccccc3c1)cn2CC(=O)N1CCC2(C)c3ccccc3N(Cc3ccccc3)C12 (stereo not given) | 1.21 | 2.27 | 4.8 | 1.68 | 1.76
Cc1ccc(C[n+]2cn(CC(=O)N3CCC4(C)c5ccccc5N(Cc5ccccc5)C34)c3cc(C)c(C)cc32)cc1 (stereo not given) | 1.23 | 1.74 | 4.84 | 1.86 | 1.77
Cc1n(CC(=O)N2CCC3(C)c4ccccc4N(Cc4ccccc4)C23)c2ccccc2[n+]1CC(=O)c1ccc(Br)cc1 (stereo not given) | 4.25 | 5.99 | 9.87 | 7.37 | 8.86
Cc1n(CC(=O)N2CCC3(C)c4ccccc4N(C)C23)cc[n+]1Cc1ccc(Br)cc1 (stereo not given) | > 20 | > 20 | > 20 | > 20 | > 20
CC12CCN(C(=O)Cn3c[n+](Cc4ccccc4Br)c4ccccc43)C1N(Cc1ccccc1)c1ccccc12 (stereo not given) | 1.21 | 4.69 | 6.76 | 2.23 | 6.35
Cc1ccc(C[n+]2c(C)n(CC(=O)N3CCC4(C)c5ccccc5N(Cc5ccccc5)C34)c3ccccc32)cc1 (stereo not given) | 1.25 | 2.97 | 6.63 | 1.98 | 1.62
Cc1n(CC(=O)N2CCC3(C)c4ccccc4N(Cc4ccccc4)C23)cc[n+]1CC(=O)c1ccccc1 (stereo not given) | > 20 | > 20 | > 20 | > 20 | > 20
Cc1n(CC(=O)N2CCC3(C)c4ccccc4N(C)C23)cc[n+]1CC(=O)c1ccc2ccccc2c1 (stereo not given) | > 20 | > 20 | > 20 | > 20 | > 20
CN1c2ccccc2C2(C)CCN(C(=O)Cn3c[n+](Cc4ccc(Br)cc4)c4ccccc43)C12 (stereo not given) | 6.96 | > 20 | > 20 | 8.93 | > 20
CN1c2ccccc2C2(C)CCN(C(=O)Cn3c[n+](Cc4ccc5ccccc5c4)c4ccccc43)C12 (stereo not given) | 2.8 | 7.45 | 14.1 | 6.86 | 7.95
Cc1n(CC(=O)N2CCC3(C)c4ccccc4N(Cc4ccccc4)C23)c2ccccc2[n+]1Cc1ccccc1Br (stereo not given) | 1.33 | 2.27 | 7.34 | 2.5 | 4.62
Cc1ccc(C[n+]2cn(CC(=O)N3CCC4(C)c5ccccc5N(C)C34)c3ccccc32)cc1 (stereo not given) | 5.13 | > 20 | > 20 | 9.47 | > 20
Cc1cc2c(cc1C)[n+](CC(=O)c1ccc(Br)cc1)cn2CC(=O)N1CCC2(C)c3ccccc3N(Cc3ccccc3)C12 (stereo not given) | 1.55 | 6.22 | 8.01 | 2.78 | 1.68
Cc1ccc(C[n+]2ccn(CC(=O)N3CCC4(C)c5ccccc5N(C)C34)c2C)cc1 (stereo not given) | > 20 | > 20 | > 20 | > 20 | > 20
Cc1n(CC(=O)N2CCC3(C)c4ccccc4N(Cc4ccccc4)C23)c2ccccc2[n+]1Cc1ccc(Br)cc1 (stereo not given) | 1.35 | 5.1 | 7.91 | 2.4 | 6.11
Cc1ccc(C[n+]2cn(CC(=O)N3CCC4(C)c5ccccc5N(Cc5ccccc5)C34)c3ccccc32)cc1 (stereo not given) | 1.2 | 4.98 | 6.23 | 2.72 | 6.57
CN1c2ccccc2C2(C)CCN(C(=O)Cn3cc[n+](Cc4ccc(Br)cc4)c3)C12 (stereo not given) | > 20 | > 20 | > 20 | > 20 | > 20

Source: ChEMBL document CHEMBL3745696, “Synthesis and cytotoxic activity of novel hexahydropyrrolo[2,3-b]indole imidazolium salts” (Bioorg Med Chem Lett, 2016)
